The values below come from patent US20140275156A1, “FLAVONOID COMPOUNDS, AND METHODS OF USE THEREOF” (NEUPROTECT PTY LTD, priority 2011, published 2014).

For assay [1] the following is noted: in vitro studies (Wang et al., British Journal of Pharmacology (2004) 142, 443-452); cited from earlier work.
Assay [2] deals with primary neonatal rat cardiac myocytes. The assay can be described thus: Cytoprotection in primary cardiac myocytes. Type of assay: cell-based. As to the method: (§1) Cardiac myocytes were plated on collagen-coated dishes in serum containing media Dulbecco's modified Eagle's medium/Medium 199 (4:1 v/v) containing 10% (v/v) horse serum, 5% (v/v) fetal calf serum, and penicillin/streptomycin (100 units/ml). Murine skeletal myoblast (C2C12) or rat cardiac myoblasts (H9C2) were maintained in DMEM supplemented with 10% (v/v) fetal calf serum and 100 U/ml penicillin-streptomycin. Cells were incubated overnight at 37° C. in a 5% CO2 incubator prior to the experiment. Cells were pre-treated with flavanols for 30 min prior to stress treatments. Following pre-treatment, cells were stimulated by the addition of H2O2 (1 mM), sorbitol (0.5 M) or arsenite (300 μM). DMSO (0.1% v/v) was used as a vehicle control. Following treatment, cells were assessed for viability or protein lysates prepared for immunoblot analysis.
(§2) To define the protective and kinase modulatory properties of the compounds of the certain embodiments, their effects in greater detail in vitro. The protection of cultured C2C12 murine myoblasts was evaluated against detrimental stress stimuli using an XTT assay of cell viability. In a time-course of oxidative damage, it was observed that 2 h treatment of H2O2 (0.5 or 1.0 mM) reduced myoblast viability to 38.5+2.0% and 31.9+0.8%, respectively, compared with control cells without H2O2 treatment.

In a further assay the test system is H9C2 rat myoblasts. The assay can be described thus: Cytoprotection in H9C2 myoblasts. Type of assay: cell-based. The protocol:
as §1, §2

As for `O=c1c(O)c(-c2ccc(O)c(O)c2)oc2ccccc12` [DiOHF, 3′,4′-dihydroxy flavonol], in assay [1], the “infarct and injury associated with myocardial ischaemia and reperfusion” value is “reduce infarct and injury”. Also, the protection against stress entry (in assay [2]; in the assay on H9C2 rat myoblasts) was “similarly protective” in each case.
